Data published in patent US11186564B2, “Dual NAV1.2/5HT2a inhibitors for treating CNS disorders” (Sunovion Pharmaceuticals Inc., priority 2016, dated 2021).
pIC50: −log10 of the molar value. Read-outs that look alike come from different tables or passages of the source.

Legend:
[1] = target: human sodium channel NaV1.2 (Homo sapiens, UniProt Q99250); assay: NaV1.2 inhibition, automated patch-clamp (Q-Patch HTX), slow inactivated state (state C); type: cell-based; details: for inhibition at 1 µM: 1 μM compound, read-out: NaV1.2 (% inh), 1 μM; for pIC50: read-out: NaV1.2 IC50; for inhibition at 10 µM: read-out: NaV1.2 (% inh), 10 μM
Summary of the method: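 IC50 comes from a least-squares fit of percent inhibition, relative to vehicle, of current in the slow-inactivated state. That state is reached by a 10 s prepulse to −50 mV, then 15 ms at −90 mV, then a 5 ms test pulse to 0 mV. Human NaV1.2 in stable CHO K-1 cells, held at −100 mV, automated patch clamp.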

[2] = target: T1, recombinant human serotonin receptor 5-HT2A (Homo sapiens, UniProt P28223); assay: 5-HT2A antagonist Ca2+ assay in CHO-K1 cells (method A aequorin luminescence / method B FLIPR fluorescence); type: cell-based; details: antagonist mode vs EC80 of reference agonist, method A or B; for pIC50: read-out: 5HT2A IC50; for IC50: 5HT2A IC50, μM
T1 construct: expressed in transfected cells; method B: loaded with Ca2+ dye
Summary of the method: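 IC50 was obtained by nonlinear regression of percent inhibition of the EC80 agonist Ca2+ response in CHO-K1 cells stably expressing human 5-HT2A. The readout was aequorin luminescence with agonist injected 15 min after compound (A), or Ca2+-dye fluorescence on FLIPR with serotonin as agonist (B).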

[3] = hNaV1.2 CHO cells, slow inactivated state

T1 sequence (P28223 whole entry): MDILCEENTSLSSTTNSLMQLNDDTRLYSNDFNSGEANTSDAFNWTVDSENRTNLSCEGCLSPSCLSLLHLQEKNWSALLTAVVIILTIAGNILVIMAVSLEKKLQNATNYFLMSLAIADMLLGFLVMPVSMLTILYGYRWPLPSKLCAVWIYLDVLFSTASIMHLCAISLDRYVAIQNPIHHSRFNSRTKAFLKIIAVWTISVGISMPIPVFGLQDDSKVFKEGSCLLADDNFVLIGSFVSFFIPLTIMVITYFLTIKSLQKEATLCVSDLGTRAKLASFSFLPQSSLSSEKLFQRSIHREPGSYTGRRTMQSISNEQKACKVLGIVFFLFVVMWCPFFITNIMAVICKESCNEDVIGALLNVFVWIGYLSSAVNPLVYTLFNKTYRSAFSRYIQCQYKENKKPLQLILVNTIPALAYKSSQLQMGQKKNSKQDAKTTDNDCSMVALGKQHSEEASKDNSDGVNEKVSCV
human sodium channel NaV1.2, sequence (Q99250 whole entry): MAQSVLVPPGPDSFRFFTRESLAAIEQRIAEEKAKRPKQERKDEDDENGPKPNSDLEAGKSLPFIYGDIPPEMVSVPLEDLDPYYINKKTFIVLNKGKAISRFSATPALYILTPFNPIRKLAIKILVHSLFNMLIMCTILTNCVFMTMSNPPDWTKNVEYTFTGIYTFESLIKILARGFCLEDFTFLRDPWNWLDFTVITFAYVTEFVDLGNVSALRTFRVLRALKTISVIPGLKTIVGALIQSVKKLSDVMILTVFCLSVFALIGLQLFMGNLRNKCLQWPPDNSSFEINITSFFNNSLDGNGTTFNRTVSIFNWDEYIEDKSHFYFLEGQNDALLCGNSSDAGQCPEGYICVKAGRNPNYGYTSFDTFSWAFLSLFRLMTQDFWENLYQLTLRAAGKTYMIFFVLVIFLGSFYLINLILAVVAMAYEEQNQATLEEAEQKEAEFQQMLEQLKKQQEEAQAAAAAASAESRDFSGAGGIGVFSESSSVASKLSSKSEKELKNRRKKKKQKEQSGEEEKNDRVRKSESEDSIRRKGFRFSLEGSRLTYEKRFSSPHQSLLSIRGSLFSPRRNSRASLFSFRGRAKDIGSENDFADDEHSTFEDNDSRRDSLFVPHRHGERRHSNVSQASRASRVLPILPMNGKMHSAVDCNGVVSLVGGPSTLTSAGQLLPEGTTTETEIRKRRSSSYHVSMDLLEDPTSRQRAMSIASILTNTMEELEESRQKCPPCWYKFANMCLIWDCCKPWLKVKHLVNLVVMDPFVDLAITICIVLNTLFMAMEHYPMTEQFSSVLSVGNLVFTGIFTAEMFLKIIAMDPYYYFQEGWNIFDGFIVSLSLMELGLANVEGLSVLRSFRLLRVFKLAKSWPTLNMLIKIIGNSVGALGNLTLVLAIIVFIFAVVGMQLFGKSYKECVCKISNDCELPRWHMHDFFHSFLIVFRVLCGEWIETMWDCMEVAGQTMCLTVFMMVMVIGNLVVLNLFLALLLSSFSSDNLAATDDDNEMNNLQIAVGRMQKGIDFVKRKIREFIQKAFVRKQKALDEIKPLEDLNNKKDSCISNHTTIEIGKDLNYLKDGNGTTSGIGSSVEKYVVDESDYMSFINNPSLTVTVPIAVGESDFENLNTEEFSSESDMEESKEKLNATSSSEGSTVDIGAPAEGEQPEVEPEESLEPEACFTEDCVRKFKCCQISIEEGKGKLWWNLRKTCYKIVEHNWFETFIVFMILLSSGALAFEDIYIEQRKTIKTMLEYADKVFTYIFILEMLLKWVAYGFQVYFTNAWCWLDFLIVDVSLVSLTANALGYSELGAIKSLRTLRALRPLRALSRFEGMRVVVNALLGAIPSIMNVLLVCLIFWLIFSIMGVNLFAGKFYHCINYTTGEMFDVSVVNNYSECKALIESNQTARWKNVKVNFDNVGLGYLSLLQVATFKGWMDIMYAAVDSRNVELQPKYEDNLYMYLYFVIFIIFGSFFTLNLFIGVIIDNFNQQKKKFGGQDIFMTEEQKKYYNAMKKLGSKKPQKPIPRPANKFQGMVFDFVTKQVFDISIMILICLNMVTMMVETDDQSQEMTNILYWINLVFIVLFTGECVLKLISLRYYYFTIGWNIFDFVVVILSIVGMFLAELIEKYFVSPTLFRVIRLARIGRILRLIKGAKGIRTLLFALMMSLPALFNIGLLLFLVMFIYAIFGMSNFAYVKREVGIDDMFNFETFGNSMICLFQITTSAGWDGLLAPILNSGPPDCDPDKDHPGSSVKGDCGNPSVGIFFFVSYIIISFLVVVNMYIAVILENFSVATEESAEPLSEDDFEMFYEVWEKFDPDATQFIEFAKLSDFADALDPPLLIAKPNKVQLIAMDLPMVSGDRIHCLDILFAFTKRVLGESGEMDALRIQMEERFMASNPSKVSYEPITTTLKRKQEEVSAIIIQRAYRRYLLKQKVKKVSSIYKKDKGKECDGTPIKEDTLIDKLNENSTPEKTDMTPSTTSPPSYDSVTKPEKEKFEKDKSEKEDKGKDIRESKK

| SMILES | inhibition at 1 µM [1, 3] [%] | pIC50 [2] | pIC50 [1, 3] | further results |
| --- | --- | --- | --- | --- |
| c1ccc2c(c1)CCC1(CN(CC3CCc4ccccc43)C1)O2 (centres unmarked) [Example 385, 1-((2,3-dihydro-1H-inden-1-yl)methyl)spiro[azetidine-3,2′-chromane]] | 16 | 6.27 | – | – |
| c1ccc2c(c1)CCC1(CCN(CC3CCc4ccccc43)C1)O2 (centres unmarked) [Example 387, 1′-((2,3-dihydro-1H-inden-1-yl)methyl)spiro[chromane-2,3′-pyrrolidine]] | 29 | 7.52 | – | – |
| O=C1CC2(CCN(CC3CCc4ccccc43)C2)Oc2ccccc21 (centres unmarked) [Example 388, 1′-((2,3-dihydro-1H-inden-1-yl)methyl)spiro[chromane-2,3′-pyrrolidin]-4-one] | – | 6.66 | 5.76 | – |
| COc1ccc2c(c1)C(CN1CCC3(CC1)OCc1ccccc13)CC2 (centres unmarked) [Example 390, 1′-((6-methoxy-2,3-dihydro-1H-inden-1-yl)methyl)-3H-spiro[isobenzofuran-1,4′-piperidine]] | – | 6.12 | 6.23 | – |
| OC(COC1CCCCC1)CN1CCC2(CC1)OCc1ccccc12 (centres unmarked) [Example 393, 1′-(cyclohexyloxy)-3-(3H-spiro[isobenzofuran-1,4′-piperidin]-1′-yl)propan-2-ol] | – | – | – | inhibition at 10 µM ([1]; CHO): 93%; IC50 [2]: 1.8 µM |
| c1ccc2c(c1)CC(CN1CCC3(CC1)Cc1ccccc1O3)C2 [Example 396, 1′-((2,3-dihydro-1H-inden-2-yl)methyl)-3H-spiro[benzofuran-2,4′-piperidine]] | – | 7.05 | 6.77 | – |
| OC(COc1ccccc1)CN1CCC2(CC1)Cc1ccccc1O2 (centres unmarked) [Example 399, 1-phenoxy-3-(3H-spiro[benzofuran-2,4′-piperidin]-1′-yl)propan-2-ol] | – | 5.74 | – | inhibition at 10 µM ([1]; 10 μM compound, hNaV1.2 CHO cells, slow inactivated state): 92% |
| OC(COC1CCCCC1)CN1CCC2(CCc3ccccc32)CC1 (centres unmarked) [Example 400, 1-(cyclohexyloxy)-3-(2,3-dihydrospiro[indene-1,4′-piperidin]-1′-yl)propan-2-ol] | – | – | – | inhibition at 10 µM ([1]; CHO): 102%; IC50 [2]: 2.29 µM |
| c1ccc2c(c1)CCC1(CCN(CC3CCc4ccccc43)CC1)O2 (centres unmarked) [Example 401, 1′-((2,3-dihydro-1H-inden-1-yl)methyl)spiro[chromane-2,4′-piperidine]] | – | 7.30 | 6.96 | – |
| COc1ccc2c(c1)C(CN1CCC3(CCc4ccccc4O3)CC1)CC2 (centres unmarked) [Example 402, 1′-((6-methoxy-2,3-dihydro-1H-inden-1-yl)methyl)spiro[chromane-2,4′-piperidine]] | – | 5.97 | 7.15 | – |
| c1ccc2c(c1)CCC2CN1CCC2(CCc3ncccc3O2)CC1 (centres unmarked) [Example 403, 1-((2,3-dihydro-1H-inden-1-yl)methyl)-3′,4′-dihydrospiro[piperidine-4,2′-pyrano[3,2-b]pyridine]] | -4 | 8.40 | – | – |
| c1ccc2c(c1)CCC2CN1CCC2(CCc3cnccc3O2)CC1 (centres unmarked) [Example 404, 1-((2,3-dihydro-1H-inden-1-yl)methyl)-3′,4′-dihydrospiro[piperidine-4,2′-pyrano[3,2-c]pyridine]] | 14 | 6.96 | – | – |
| c1ccc2c(c1)CCC2CN1CCC2(CCc3ccncc3O2)CC1 (centres unmarked) [Example 405, 1-((2,3-dihydro-1H-inden-1-yl)methyl)-3′,4′-dihydrospiro[piperidine-4,2′-pyrano[2,3-c]pyridine]] | 18 | 6.74 | – | – |
| c1ccc2c(c1)CCC2CN1CCC2(CCc3cccnc3O2)CC1 (centres unmarked) [Example 406, 1-((2,3-dihydro-1H-inden-1-yl)methyl)-3′,4′-dihydrospiro[piperidine-4,2′-pyrano[2,3-b]pyridine]] | 7 | 7.40 | – | – |
| c1ccc2c(c1)CCC1(CCN(CC3COc4ccccc43)CC1)O2 (centres unmarked) [Example 409] | – | 6.03 | 5.55 | – |
| c1ccc2c(c1)CC(CN1CCC3(CCc4ccccc4O3)CC1)C2 [Example 410, 1′-((2,3-dihydro-1H-inden-2-yl)methyl)spiro[chromane-2,4′-piperidine]] | – | 7.00 | 6.32 | – |
